Laboratory results reported in PubChem BioAssay (NCI).
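Method: 48-hour compound exposure of cells in 96-well plates, five concentrations, linear interpolation of endpoints. GI50 is the concentration that inhibits growth by half. The concentration for full growth arrest is given as TGI.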

Experiments:
Test in all cases: DTP human tumour cell line panel, 48 h
[1] = tested on: 786-0 renal
[2] = tested on: A498 renal
[3] = tested on: A549 NSCLC
[4] = tested on: ACHN renal
[5] = tested on: BT-549 breast
[6] = tested on: CAKI-1 renal
[7] = tested on: CCRF-CEM leukemia
[8] = tested on: DU-145 prostate
[9] = tested on: EKVX NSCLC
[10] = tested on: HCC-2998 colon
[11] = tested on: HCT-15 colon
[12] = tested on: HL-60(TB) leukemia
[13] = tested on: HOP-62 NSCLC
[14] = tested on: HOP-92 NSCLC
[15] = tested on: HS 578T breast
[16] = tested on: HT29 colon
[17] = tested on: IGROV1 ovarian
[18] = tested on: K-562 leukemia
[19] = tested on: KM12 colon
[20] = tested on: M14 melanoma
[21] = tested on: MALME-3M melanoma
[22] = tested on: MCF7 breast
[23] = tested on: MDA-MB-231 breast
[24] = tested on: MDA-MB-435
[25] = tested on: MOLT-4 leukemia
[26] = tested on: NCI-H226 lung
[27] = tested on: NCI-H460 lung
[28] = tested on: OVCAR-3 ovarian
[29] = tested on: OVCAR-4 ovarian
[30] = tested on: OVCAR-5 ovarian
[31] = tested on: OVCAR-8 ovarian
[32] = tested on: PC-3 prostate
[33] = tested on: RPMI-8226 leukemia
[34] = tested on: RXF 393 renal
[35] = tested on: SF-268 CNS
[36] = tested on: SF-295 CNS
[37] = tested on: SF-539 CNS
[38] = tested on: SK-MEL-2 melanoma
[39] = tested on: SK-MEL-28 melanoma
[40] = tested on: SK-MEL-5 melanoma
[41] = tested on: SK-OV-3 ovarian
[42] = tested on: SN12C renal
[43] = tested on: SNB-19 CNS
[44] = tested on: SNB-75 CNS
[45] = tested on: SR leukemia
[46] = tested on: SW-620 colon
[47] = tested on: T-47D breast
[48] = tested on: TK-10 renal
[49] = tested on: U251 CNS
[50] = tested on: UACC-257 melanoma
[51] = tested on: UACC-62 melanoma
[52] = tested on: UO-31 renal
[53] = tested on: COLO 205 colon
[54] = tested on: HCT-116 colon
[55] = tested on: LOX IMVI melanoma
[56] = tested on: NCI-H23 lung
[57] = tested on: NCI/ADR-RES ovarian

## CC1(C)[C@@H](O)CC[C@]2(C)[C@H]3CC[C@@H]4[C@H]5[C@H](C(=O)/C=C\c6ccccn6)CC[C@]5(O)CC[C@@]4(C)[C@]3(C)CC[C@@H]12
[1]
  GI50: 2.23 µM
  TGI: 4.73 µM
[2]
  GI50: 1.66 µM
  TGI: 4.33 µM
[3]
  GI50: 2.77 µM
  TGI: 9.37 µM
[4]
  GI50: 2.33 µM
  TGI: 6.28 µM
[5]
  GI50: 1.96 µM
  TGI: 3.57 µM
[6]
  GI50: 2.02 µM
  TGI: 8.4 µM
[7]
  GI50: 2.06 µM
  TGI: 8.51 µM
[8]
  GI50: 1.75 µM
  TGI: 3.52 µM
[9]
  GI50: 2.62 µM
  TGI: 13.3 µM
[10]
  GI50: 1.94 µM
  TGI: 3.52 µM
[11]
  GI50: 1.9 µM
  TGI: 5.52 µM
[12]
  GI50: 1.81 µM
  TGI: 5.74 µM
[13]
  GI50: 1.8 µM
  TGI: 4.99 µM
[14]
  GI50: 1.34 µM
  TGI: 3.74 µM
[15]
  GI50: 6.84 µM
  TGI: > 100 µM
[16]
  GI50: 3.33 µM
  TGI: > 100 µM
[17]
  GI50: 1.9 µM
  TGI: 4.07 µM
[18]
  GI50: 2.25 µM
  TGI: > 100 µM
[19]
  GI50: 1.85 µM
  TGI: 3.96 µM
[20]
  GI50: 2.26 µM
  TGI: 5.87 µM
[21]
  GI50: 2.16 µM
  TGI: 4.78 µM
[22]
  GI50: 0.768 µM
  TGI: 4.54 µM
[23]
  GI50: 3.04 µM
  TGI: > 100 µM
[24]
  GI50: 1.76 µM
  TGI: 3.75 µM
[25]
  GI50: 2.39 µM
  TGI: > 100 µM
[26]
  GI50: 3.05 µM
  TGI: 34.5 µM
[27]
  GI50: 1.9 µM
  TGI: 4.83 µM
[28]
  GI50: 1.87 µM
  TGI: 4.89 µM
[29]
  GI50: 3.92 µM
  TGI: 46.4 µM
[30]
  GI50: 2.89 µM
  TGI: 7.92 µM
[31]
  GI50: 3.37 µM
  TGI: > 100 µM
[32]
  GI50: 2.1 µM
  TGI: 6.24 µM
[33]
  GI50: 1.76 µM
  TGI: 5.35 µM
[34]
  GI50: 1.74 µM
  TGI: 3.15 µM
[35]
  GI50: 2.38 µM
  TGI: 8.44 µM
[36]
  GI50: 2.61 µM
  TGI: 8.55 µM
[37]
  GI50: 2.34 µM
  TGI: 6.34 µM
[38]
  GI50: 2.61 µM
  TGI: 7.18 µM
[39]
  GI50: 2.04 µM
  TGI: 4.13 µM
[40]
  GI50: 1.63 µM
  TGI: 3.05 µM
[41]
  GI50: 5.35 µM
  TGI: 30.7 µM
[42]
  GI50: 3.08 µM
  TGI: > 100 µM
[43]
  GI50: 2.77 µM
  TGI: 10.8 µM
[44]
  GI50: 7.59 µM
  TGI: > 100 µM
[45]
  GI50: 1.71 µM
  TGI: 14.5 µM
[46]
  GI50: 1.93 µM
  TGI: 4.85 µM
[47]
  GI50: 1.52 µM
  TGI: 8.62 µM
[48]
  GI50: 3.23 µM
  TGI: 9.31 µM
[49]
  GI50: 1.61 µM
  TGI: 3.1 µM
[50]
  GI50: 3.25 µM
  TGI: 39.2 µM
[51]
  GI50: 1.74 µM
  TGI: 3.95 µM
[52]
  GI50: 1.6 µM
  TGI: 3.23 µM

## C=C(C=O)[C@@H]1CC[C@]2(CO)CC[C@]3(C)[C@H](CC[C@@H]4[C@@]5(C)CCCNC(C)(C)[C@@H]5CC[C@]43C)[C@@H]12
[1]
  GI50: 14.9 µM
  TGI: 32.3 µM
[2]
  GI50: 0.57 µM
  TGI: 93.6 µM
[3]
  GI50: 15.5 µM
  TGI: 46 µM
[4]
  GI50: 15 µM
  TGI: 31.2 µM
[5]
  GI50: 8.94 µM
  TGI: 22.8 µM
[6]
  GI50: 14.3 µM
  TGI: 31.8 µM
[7]
  GI50: 2.21 µM
  TGI: 6.22 µM
[53]
  GI50: 12.8 µM
  TGI: 29.4 µM
[8]
  GI50: 7.13 µM
  TGI: 20.3 µM
[9]
  GI50: 11.1 µM
  TGI: 30.8 µM
[10]
  GI50: 1.91 µM
  TGI: 3.67 µM
[54]
  GI50: 1.8 µM
  TGI: 3.57 µM
[11]
  GI50: 1.99 µM
  TGI: 7.4 µM
[12]
  GI50: 1.96 µM
  TGI: 4.36 µM
[13]
  GI50: 14.6 µM
  TGI: 31.3 µM
[14]
  GI50: 2.12 µM
  TGI: 7.64 µM
[15]
  GI50: 9.64 µM
  TGI: 50.6 µM
[16]
  GI50: 2.31 µM
  TGI: 5.95 µM
[17]
  GI50: 3.34 µM
  TGI: 13.1 µM
[18]
  GI50: 1.93 µM
  TGI: 5.44 µM
[19]
  GI50: 3.01 µM
  TGI: 9.33 µM
[55]
  GI50: 1.74 µM
  TGI: 3.3 µM
[20]
  GI50: 7.77 µM
  TGI: 23.3 µM
[21]
  GI50: 10.8 µM
  TGI: 26.4 µM
[22]
  GI50: 1.65 µM
  TGI: 5.14 µM
[23]
  GI50: 14 µM
  TGI: 31.5 µM
[24]
  GI50: 4.8 µM
  TGI: 18.2 µM
[25]
  GI50: 3.64 µM
  TGI: 16 µM
[26]
  GI50: 5.09 µM
  TGI: 23.6 µM
[56]
  GI50: 6.16 µM
  TGI: 21.1 µM
[27]
  GI50: 11 µM
  TGI: 25.9 µM
[57]
  GI50: 4.15 µM
  TGI: 23 µM
[28]
  GI50: 3.35 µM
  TGI: 11.9 µM
[29]
  GI50: 6.16 µM
  TGI: 23.2 µM
[30]
  GI50: 9.72 µM
  TGI: 23 µM
[31]
  GI50: 7.29 µM
  TGI: 78.8 µM
[32]
  GI50: 2.91 µM
  TGI: 18.8 µM
[33]
  GI50: 2.96 µM
  TGI: 13.9 µM
[34]
  GI50: 3.83 µM
  TGI: 16.3 µM
[35]
  GI50: 16.1 µM
  TGI: 50.8 µM
[36]
  GI50: 13.8 µM
  TGI: 27.6 µM
[37]
  GI50: 7.78 µM
  TGI: 20.4 µM
[38]
  GI50: 12 µM
  TGI: 27.2 µM
[39]
  GI50: 3.15 µM
  TGI: 12.6 µM
[40]
  GI50: 10.3 µM
  TGI: 22.3 µM
[41]
  GI50: 40 µM
  TGI: > 100 µM
[42]
  GI50: 14 µM
  TGI: 35.2 µM
[43]
  GI50: 8.56 µM
  TGI: 21.3 µM
[44]
  GI50: 9.07 µM
  TGI: 61.8 µM
[45]
  GI50: 1.75 µM
  TGI: 3.74 µM
[46]
  GI50: 2.01 µM
  TGI: 5.52 µM
[47]
  GI50: 2.76 µM
  TGI: 17.9 µM
[48]
  GI50: 28.5 µM
  TGI: 69.9 µM
[49]
  GI50: 4.43 µM
  TGI: 17.8 µM
[50]
  GI50: 11.3 µM
  TGI: 31.7 µM
[51]
  GI50: 13.1 µM
  TGI: 27.9 µM
[52]
  GI50: 14.9 µM
  TGI: 38.7 µM
